Test results as given in patent US20250026724A1, “(1,4,5-TRISUBSTITUTED 1H-PYRAZOL-3-YL)OXY-2-ALKYLTHIOALKYL ACIDS AND -ALKYL ACID DERIVATIVES, SALTS THEREOF AND USE THEREOF AS ACTIVE HERBICIDAL INGREDIENTS” (BAYER AKTIENGESELLSCHAFT, priority 2021, published 2025).

How the values were obtained:
Assay in all cases: Post-emergence herbicidal action, greenhouse pot trial
Assay type in all cases: in vivo
[1] = system: Abutilon theophrasti (ABUTH); conditions: visual rating after about 3 weeks; for pest or weed control at 320 g/ha: read-out: Post-emergence effect at 320 g/ha against ABUTH in %
Experimental: (§1) Seeds of monocotyledonous and dicotyledonous weeds and crop plants are placed in sandy loam in plastic or organic planting pots, covered with soil and cultivated in a greenhouse under controlled growth conditions. 2 to 3 weeks after sowing, the trial plants are treated at the one-leaf stage. The compounds of the invention, formulated in the form of wettable powders (WP) or as emulsion concentrates (EC), are then sprayed onto the green parts of the plants as aqueous suspension or emulsion with addition of 0.5% additive at a water application rate equivalent to 600 l/ha. After about 3 weeks of keeping the trial plants in the greenhouse under optimum growth conditions, the effect of the preparations is rated visually in comparison to untreated controls. For example, 100% activity=the plants have died, 0% activity=like control plants.
(§2) Tables B1 to B14 below show the effects of selected compounds of the general formula (I) according to Table 1 on various harmful plants and at an application rate corresponding to 320 g/ha or lower, which were obtained by the trial procedure specified above. The appendices “a”, “b” and “c” give differentiation by dosage used with otherwise the same harmful plants tested.
(§3) As shown by results from Tables B1 to B19, inventive compounds of the general formula (I) in the case of post-emergence treatment have good herbicidal efficacy against harmful plants, for example Abutilon theophrasti (ABUTH), Alopecurus myosuroides (ALOMY), Amaranthus retroflexus (AMARE), Avena fatua (AVEFA), Digitaria sanguinalis (DIGSA), Echinochloa crus-galli (ECHCG), Bassia scoparia (KCHSC), Lolium rigidum (LOLRI), Matricaria inodora (MATIN), Pharbitis purpurea (PHBPU), Polygonum convolvulus (POLCO), Setaria viridis (SETVI), Veronica persica (VERPE) and Viola tricolor (VIOTR) at an application rate of 320 g of active substance or less per hectare, and good crop plant compatibility in the case of organisms such as Oryza sativa (ORYSA), Zea mays (ZEAMX), Brassica napus (BRSNW), Glycine max (GLXMA) and Triticum aestivum (TRZAS) at an application rate of 320 g or less per hectare.

[2] = system: Alopecurus myosuroides (ALOMY); conditions: Alopecurus myosuroides, 504 h, 320 g/ha, visual rating after about 3 weeks, read-out: Post-emergence effect at 320 g/ha against ALOMY in %
Experimental: as §1, §2, §3

Bassia scoparia (KCHSC) = conditions: 320 g/ha
Experimental: as §1, §2, §3

[3] = system: Pharbitis purpurea (PHBPU); conditions: visual rating after about 3 weeks; for pest or weed control at 320 g/ha / pest or weed control at 80 g/ha: Ipomoea purpurea, 504 h; for pest or weed control at 320 g/ha: read-out: Post-emergence effect at 320 g/ha against PHBPU in %; for pest or weed control at 80 g/ha: read-out: Post-emergence effect at 80 g/ha against PHBPU in %
Experimental: as §1, §2, §3

[4] = system: Polygonum convolvulus (POLCO); conditions: visual rating after about 3 weeks; for pest or weed control at 320 g/ha: read-out: Post-emergence effect at 320 g/ha against POLCO in %
Experimental: as §1, §2, §3

Viola tricolor (VIOTR) = conditions: for pest or weed control at 320 g/ha / pest or weed control at 80 g/ha: Viola tricolor, 504 h, read-out: Post-emergence effect against VIOTR
Experimental: as §1, §2, §3

[5] = system: Echinochloa crus-galli (ECHCG); conditions: visual rating after about 3 weeks; for pest or weed control at 320 g/ha: read-out: Post-emergence effect at 320 g/ha against ECHCG in %
Experimental: as §1, §2, §3

[6] = system: Amaranthus retroflexus (AMARE); conditions: visual rating after about 3 weeks; for pest or weed control at 80 g/ha: read-out: Post-emergence effect at 80 g/ha against AMARE in %
Experimental: as §1, §2, §3

Avena fatua (AVEFA) = conditions: 320 g/ha, visual rating after about 3 weeks; for pest or weed control at 320 g/ha: Avena fatua, 504 h, read-out: Post-emergence effect at 320 g/ha against AVEFA in %
Experimental: as §1, §2, §3

[7] = system: Digitaria sanguinalis (DIGSA); conditions: visual rating after about 3 weeks
Experimental: as §1, §2, §3

Lolium rigidum (LOLRI) = conditions: Lolium rigidum, 504 h, 320 g/ha, visual rating after about 3 weeks, read-out: Post-emergence effect at 320 g/ha against LOLRI in %
Experimental: as §1, §2, §3

[8] = system: Matricaria inodora (MATIN); conditions: 320 g/ha, visual rating after about 3 weeks
Experimental: as §1, §2, §3

Setaria viridis (SETVI) = conditions: 320 g/ha, visual rating after about 3 weeks
Experimental: as §1, §2, §3

[9] = Abutilon theophrasti, 504 h, 320 g/ha
[10] = Fallopia convolvulus, 504 h, 320 g/ha
[11] = Echinochloa crus-galli, 504 h, 320 g/ha

Structure (SMILES)	pest or weed control at 320 g/ha [1, 9] [%]	pest or weed control at 320 g/ha [2] [%]	pest or weed control at 320 g/ha ([3]; 320 g/ha) [%]	pest or weed control at 320 g/ha [4, 10] [%]	pest or weed control at 320 g/ha (Viola tricolor (VIOTR); 320 g/ha) [%]	pest or weed control at 320 g/ha [5, 11] [%]	pest or weed control at 80 g/ha ([6]; Amaranthus retroflexus, 504 h) [%]	pest or weed control at 320 g/ha (Avena fatua (AVEFA)) [%]	pest or weed control at 320 g/ha (Lolium rigidum (LOLRI)) [%]	pest or weed control at 80 g/ha ([3]; 80 g/ha) [%]	pest or weed control at 80 g/ha (Viola tricolor (VIOTR)) [%]	also measured
CSC(Oc1nn(-c2cnccn2)c(-c2ccc(F)nc2)c1Cl)C(=O)O (centres unmarked) [Example I-37]	80	90	90	90	80	–	–	–	–	–	–	pest or weed control at 320 g/ha (Bassia scoparia (KCHSC); Bassia scoparia, 504 h, read-out: Post-emergence effect against KCHSC): 90%
CCOC(=O)C(Oc1nn(-c2cnccn2)c(-c2ccc(F)nc2)c1Cl)SC (centres unmarked) [Example I-16]	–	80	80	80	–	80	–	–	–	–	–	–
CCOC(=O)C(Oc1nn(-c2ncccc2F)c(-c2ccc(F)nc2)c1Cl)SC (centres unmarked) [Example I-19]	90	–	90	90	100	100	80	100	100	80	90	pest or weed control at 320 g/ha ([6]; Amaranthus retroflexus, 504 h, 320 g/ha, read-out: Post-emergence effect at 320 g/ha against AMARE in %): 90%; pest or weed control at 320 g/ha ([7]; Digitaria sanguinalis, 504 h, 320 g/ha, read-out: Post-emergence effect at 320 g/ha against DIGSA in %): 80%; pest or weed control at 320 g/ha ([8]; Tripleurospermum inodorum, 504 h, read-out: Post-emergence effect at 320 g/ha against MATIN in %): 90%; pest or weed control at 320 g/ha (Setaria viridis (SETVI); Setaria viridis, 504 h, read-out: Post-emergence effect at 320 g/ha against SETVI in %): 90%
CSC(Oc1nn(-c2ncccc2F)c(-c2ccc(F)nc2)c1Br)C(=O)O (single isomer, unassigned) [Example I-25]	–	90	–	–	–	–	90	–	–	–	–	Post-emergence effect at 320 g/ha against ABUTH in % ([1]; 320 g/ha): 90%; Post-emergence effect at 320 g/ha against AMARE in % ([6]; 320 g/ha): 90%; Post-emergence effect at 320 g/ha against AVEFA in % (Avena fatua (AVEFA)): 90%; Post-emergence effect against KCHSC (Bassia scoparia (KCHSC)): 90%; Post-emergence effect at 80 g/ha against DIGSA in % ([7]; 80 g/ha): 80%; Post-emergence effect at 320 g/ha against DIGSA in % ([7]; 320 g/ha): 90%; Post-emergence effect at 320 g/ha against ECHCG in % ([5]; 320 g/ha): 90%; pest or weed control at 80 g/ha ([5]; Echinochloa crus-galli, 504 h, 80 g/ha, read-out: Post-emergence effect at 80 g/ha against ECHCG in %): 80%; Post-emergence effect at 320 g/ha against MATIN in % [8]: 80%; Post-emergence effect at 80 g/ha against PHBPU in % ([3]; 80 g/ha): 90%; Post-emergence effect at 320 g/ha against PHBPU in % ([3]; 320 g/ha): 90%; Post-emergence effect at 320 g/ha against POLCO in % ([4]; 320 g/ha): 80%; pest or weed control at 80 g/ha ([4]; Fallopia convolvulus, 504 h, 80 g/ha, read-out: Post-emergence effect at 80 g/ha against POLCO in %): 80%; Post-emergence effect at 320 g/ha against SETVI in % (Setaria viridis (SETVI)): 90%; Post-emergence effect against VIOTR (Viola tricolor (VIOTR); 320 g/ha): 90%
COC(=O)C(Oc1nn(-c2ncccc2F)c(-c2ccc(F)nc2)c1C1CC1)SC (centres unmarked) [Example I-59]	90	–	90	–	80	90	–	90	90	90	80	pest or weed control at 80 g/ha ([1]; Abutilon theophrasti, 504 h, 80 g/ha, read-out: Post-emergence effect at 80 g/ha against ABUTH in %): 80%
